Reference: the METLIN SMRT retention time set (Domingo-Almenara et al. 2019)

Assay: gradient 5% acetonitrile 3 min, to 50% in 2 min, to 85% in 15 min, held 3 min, 100 µL/min
Conditions: column: Zorbax Extend-C18 2.1 x 50 mm; eluents: water / acetonitrile, 0.1% formic acid
How it was run: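 Values are retention times taken from adduct peaks that software picked and an analyst inspected. The pure standards were run as mixtures of ~100 molecules on HPLC linked to a quadrupole time-of-flight mass spectrometer, in positive and negative ionization mode. A Zorbax Extend-C18 column (2.1 × 50 mm, 1.8 μm) was used at 100 μL/min with water and acetonitrile, each including 0.1% formic acid.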

Structure (SMILES)	RP-LC retention time [s]
CSc1ccc(-c2nc3cnccn3c2NC2CCCCC2)cc1	1010
O=C(CSc1nnc(C2COc3ccccc3O2)o1)NCc1ccco1 (configuration not stated)	648
CCn1cnc(S(=O)(=O)N2CCC(C(=O)NCc3ccc(N(C)C)cc3)CC2)c1	567
COCc1noc([C@@H]2CC(F)(F)CN2C(=O)C2CC=CC2)n1	777
CCC(C)NC(=O)N1CCN(c2cc(-c3cc(F)ccc3OC)ncn2)CC1 (configuration not stated)	636
O=C(NCC1(c2ccccc2)CCOCC1)c1c(F)cccc1Cl	769
COc1ccc(NC(=O)Cn2nc3n(c2=O)CCCCC3)cc1Cl	692
CCOc1ccc2c(n1)CCN(C(=O)NCC(C)C)C2	740
CCC(C)NC(=O)N1CCN(Cc2nc3cc(C(=O)N(C)C)ccc3n2C)CC1 (configuration not stated)	586
O=C(CCC1CCCN(C(=O)Nc2ccc(Cl)cc2)C1)NCc1cccc(Cl)c1 (configuration not stated)	960
CCCCS(=O)(=O)N1C[C@@H](COC)[C@H](C(=O)NC)C1	626
O=C(Nc1ccc2c(c1)OCCO2)N1CCCC(CN2CCOCC2)CC1 (configuration not stated)	590
Cn1c(=O)n(Cc2ccc(Br)cc2F)c(=O)c2cnc(-c3cccnc3)nc21	968
Cc1ccc(C)c(N2CCN(c3ncc(S(=O)(=O)c4ccc(Cl)cc4)c(N)n3)CC2)c1	1380
O=C(Nc1ccccc1Br)N1CCN(CCn2cnc3cccnc32)CC1	595
CN1CCc2c(n(CC(O)Cn3nnc4ccccc43)c3ccccc23)C1=O (configuration not stated)	754
O=C(CN1CC=C(c2cnn(-c3ccccc3)c2)CC1)N1CCOCC1	604
Cc1cc(S(=O)(=O)N2CC(N(Cc3ccncc3)CC3CC3)C2)ccc1F	709
COc1cc2c(cc1OC)C(C(=O)NCCCN1CCOCC1)C(c1cccs1)N(C)C2=O (configuration not stated)	596

Structure (SMILES)	RP-LC retention time [s]
Cc1ccc(NC(=O)Cn2ncc3c(c2=O)N(CC2CC2)C(=O)CS3)cc1C	812
CCc1ccccc1N1C(=O)CN(S(=O)(=O)CC)CC1(C)C(=O)NCc1ccc(F)cc1 (configuration not stated)	892
O=S(=O)(c1ccccc1C(F)(F)F)N1CCc2nc(-c3ccccc3)ncc2C1	1110
CCSc1nnc(NC(=O)CSc2ncnc3ccccc23)s1	733
Cc1cc(C)cc(N2CCC(N)C2=O)c1 (configuration not stated)	605
CC(C)CC(=O)Nc1ccc2c(c1)nc(CN1CCCC1)n2C(C)C	612
O=C(CN1CCN(C(=O)COc2ccc(Cl)cc2Cl)CC1)c1cccs1	630
CCN1CCn2cc(S(=O)(=O)Nc3ccc(C)cc3C)cc2C1=O	746
COc1cc(NC(=O)N2CCN(c3ccc(=O)n(-c4ccc(C)c(C)c4)n3)CC2)cc(OC)c1OC	775
O=C(NCC1CCCO1)C1CCCN(c2nccnc2Sc2ccccc2)C1 (configuration not stated)	860
CC(C)Oc1ccc(CNC(=O)C2(C)CCCCC(=O)N2)cc1 (configuration not stated)	710
N#Cc1cccc(C(=O)NC2CCN(C(=O)C3CC3)C2)c1 (configuration not stated)	651
O=S(=O)(c1ccc2c(c1)OCCO2)N1CC[C@@H]2COCCN(Cc3cccnc3)[C@@H]2C1	629
CCCc1noc(-c2cccn3c(CC(=O)N4CCOCC4)nnc23)n1	626
c1ccc(-c2nc(-c3cnccn3)no2)c(OC2CNC2)c1	583
O=C(NCC(F)(F)F)C1CN(C(=O)COc2ccccc2F)C1	666
Cc1ccc(N2CN(CC(=O)NCCC3=CCCCC3)S(=O)(=O)c3cccnc32)cc1	1050
Cc1ccc(NS(=O)(=O)c2cc(-c3[nH]ncc3C(=O)N(C)C)oc2C)cc1F	713
Cc1nn(-c2nc3ccccc3[nH]2)c2c1C(=O)CC(c1cccs1)C2 (configuration not stated)	967

Results, then the molecule that gave them:

RP-LC retention time [s]	Structure (SMILES)
961	CCOc1ccc(S(=O)(=O)N2CCc3c(c(-c4nnc(SCC)n4CC)nn3C)C2)cc1
755	COc1cccc(NC(=O)C2CCN(S(=O)(=O)c3ccc4c(c3)CCCC(=O)N4)CC2)c1
925	COCC(C)Nc1ncnc2c1cnn2-c1cccc(Cl)c1 (configuration not stated)
891	CCn1ccc(C(=O)Nc2cccc(OCc3nnc(-c4ccc(OC)cc4)o3)c2)n1
775	COc1ccc(OC)c(NC(=O)c2cc(C3CC3)[nH]n2)c1
802	COc1ccccc1OCC(=O)Nc1cc(-c2ccccn2)no1
595	O=C(CN1CC(c2nc(Cc3ccccc3)no2)C1)NCc1ccc(F)cc1
982	CCc1cccc(C)c1Nc1c(-c2ccc(C(=O)OC)cc2)nc2cnccn12
702	CCC(=O)NCc1cnn(-c2ccc(C(=O)Nc3ccc4c(c3)OCCO4)cc2)c1
777	CCn1ccc(C(=O)NC2CCN(C3=NS(=O)(=O)C(c4ccc(F)cc4)=C3C)CC2)n1
952	COc1cc(OC)cc(C(=O)N2CCc3cn(C)c4cccc(c34)C2)c1
762	COc1ccc(-c2nnc(COc3ccc(NS(C)(=O)=O)cc3)o2)cc1
962	COc1ccc(NC(=O)Cn2c(C)cc(-c3nnc(-c4ccc(F)cc4)o3)c2C)cc1F
780	Cc1ccc(CNC(=O)N2CCN(c3ncccc3-c3nnc(C4CC4)o3)CC2)cc1
933	CCOc1ccc(/C=C/c2nc3ccccc3n(C)c2=O)cc1
1080	Oc1ccc(Br)cc1-c1nc2ncccn2c1Nc1cccc(C(F)(F)F)c1
1300	Cc1ccc(-c2coc(-c3cccc(NS(=O)(=O)c4ccc(Br)s4)c3)n2)cc1
988	COc1ccc(NC(=O)Cn2c(C)nc3c(sc4nc(-c5ccccc5)ccc43)c2=O)cc1
589	O=C(NCc1cccnc1)c1nc2ccccn2c1-c1ccsc1
834	Cc1ccsc1C(=O)Nc1ccc(N2CCN(Cc3ccccc3)C2=O)nc1
975	CC(C)N1C(=O)c2cccnc2Sc2cc(NC(=O)c3ccc(Cl)s3)ccc21
712	O=C(CCc1c(-c2ccc(Cl)cc2)nc2ccccn12)NC1CCCCCC1
964	O=C(Nc1ccccc1Br)N1CCc2nc(-c3ccccc3)ncc2C1
855	COCCCn1c(=O)c2ccccc2n(Cc2nc(-c3cccc(C)c3)no2)c1=O
963	COc1ccc(-c2nnc(-c3cccc(S(=O)(=O)N4CCCC4)c3)o2)cc1
714	Cc1cc2c(=O)n(CC(=O)NCc3ccc(Cl)cc3)c3cccnc3n2n1
746	Cc1ccc(C2NC(=O)N(CC(=O)Nc3ccc4c(c3)OCO4)C3=C2C(=O)OC3)cc1 (configuration not stated)
968	CCOc1cccc(-c2noc(-c3nn(-c4cccc(OC)c4)ccc3=O)n2)c1
965	O=C(NCCc1ccccc1)NCc1cccn1Cc1ccc(F)cc1
